How the values were obtained:
[1] = molecular target: T1, IRK1 channel (Mus musculus, UniProt P35561); experiment: whole-cell patch clamp, HEK293T cells transfected with IRK1; type: cell-based; details: n=5; for inhibition of IRK1 channel, percentage inhibition: equimolar 50 mM alcohol series
T1 construct: expressed in transfected cells; host or cells: HEK293T
T1 sequence (P35561 1-428): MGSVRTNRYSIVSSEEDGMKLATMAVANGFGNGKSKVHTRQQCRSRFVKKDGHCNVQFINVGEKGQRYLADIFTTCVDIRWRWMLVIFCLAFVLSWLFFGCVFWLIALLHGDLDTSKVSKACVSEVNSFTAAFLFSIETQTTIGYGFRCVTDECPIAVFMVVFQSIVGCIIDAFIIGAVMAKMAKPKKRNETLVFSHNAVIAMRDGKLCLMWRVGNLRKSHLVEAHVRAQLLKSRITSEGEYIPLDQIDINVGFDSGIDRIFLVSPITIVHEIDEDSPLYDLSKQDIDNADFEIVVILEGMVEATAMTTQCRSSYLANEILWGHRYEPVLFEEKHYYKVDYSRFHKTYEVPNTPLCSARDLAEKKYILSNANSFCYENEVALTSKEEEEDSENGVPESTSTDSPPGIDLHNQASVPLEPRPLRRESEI
Method: Using whole-cell patch clamp, technique in HEK293T cells transfected with IRK1 or GIRK2 channels, it was determined that MPD does in fact modulate these channels. Addition of 100 mM MPD inhibits the inward currents of the IRK1 channel, without changing the reversal potential or altering inward rectification (FIG. 1e).
(§1) GIRK2c, GIRK4, IRK1, M2R and m-Phosducin were subcloned into PCDNA3.1 vector (Invitrogen). Point mutations were introduced by Quickchange site directed mutagenesis kit (Stratagene). The GIRK2 PIP mutant was generated by overlap-PCR method. Briefly, amino acid 216-NLRKSHL-222 (SEQ ID NO: 25) of IRK1 was swapped into 228-DLRNSHL-234 (SEQ ID NO: 26) of GIRK2, in the region designated βC-βD loop in the crystal structure. Mutations were confirmed by automated DNA sequencing methods.
(§2) HEK 293T cells were cultured in DMEM supplemented with 10% FBS, and 1× Glutamax (Invitrogen) in a humidified 37° incubator with 5% CO2. Cells were plated in a 12 well dish, and were transiently transfected using Lipofectamine 2000 (Invitrogen). After 12-24 hrs, cells were re-plated to 12-mm glass coverslips coated with poly-D-Lysine (20 microgram/ml).
(§3) HEK293 cells were transfected with 0.2 micrograms of channel cDNA. The cells were co-transfected with 0.04 micrograms of eYFP cDNA to identify transfected cells. 0.8 micrograms of Muscarinic Receptor 2 (M2R) was also co-transfected for experiments with Carbachol. For experiments with and without m-phosducin, 0.8 ug of m-phosducin cDNA was used versus a PCDNA3.1 vector control.
(§4) Whole-cell patch clamp recordings were performed 24-72 hrs after transfection. Borosilicate glass electrodes (Warner Instruments) of […] filled with intracellular solution (130 mM KCl, 20 mM NaCl, 5 mM EGTA, 2.56 mM K2ATP, 5.46 mM MgCl2, 0.30 mM Li2GTP, and 10 mM HEPES (pH 7.4)) was used. Membrane currents were recorded using Axopatch 200B (Axon Instruments) amplifier, adjusted electronically for cell capacitance and series resistance (80-100%), filtered at 1 kHz with an 8-pole Bessel filter and digitized at 5 kHz with a Digidata 1200 interface (Axon Instruments). The cells rapidly perfused with a 20 mM K^+ (20K) solution (20 mM KCl, 140 mM NaCl, 0.5 mM CaCl2, 2 mM MgCl2 and 10 mM HEPES (pH7.4)). Alcohols, 5 μM Carbachol, and 1 mM BaCl2 (diluted in 20K solution) were applied from outside the cell with the rapid perfusion system (Warner Instruments). Whole-cell currents were measured using a ramp protocol that holds at −40 mV, steps to −100 mV then ramps to +50 mV and repeats every 2 seconds. Current-voltage relationships also were obtained from the ramp protocol. This protocol was used to measure the inwardly rectifying currents at −100 mV and to ensure stability of recording by monitoring a reversal potential and inward rectification. Current density was measured by dividing inward current at −100 mV by membrane capacitance that was compensated during the recording. Basal currents were measured as the Ba^++ blocked inward currents at −100 mV. Alcohol and Carbachol modulated currents were measured by averaging two consecutive current readings upon reaching steady state, and subtracting the averaged basal current before and after the application of modulator. Pooled data are presented as Mean±SEM and evaluated for statistical significance by a 1-way ANOVA, followed by Bonferroni's multiple comparison post-hoc test.

[2] = molecular target: T2, GIRK2 channel (wild type) (Mus musculus, UniProt P48542); experiment: whole-cell patch clamp, HEK293T cells transfected with GIRK2; type: cell-based; details: for desensitization of induced GIRK2 current in cells co-transfected with M2R and myristylated-phosducin / activation of wildtype GIRK2, percentage change from Ba++ sensitive basal current: 100 mM alcohols; for desensitization of induced GIRK2 current in cells co-transfected with M2R and myristylated-phosducin: 5 uM Carbachol
T2 construct: expressed in transfected cells; host or cells: HEK293T
T2 sequence (P48542 1-425): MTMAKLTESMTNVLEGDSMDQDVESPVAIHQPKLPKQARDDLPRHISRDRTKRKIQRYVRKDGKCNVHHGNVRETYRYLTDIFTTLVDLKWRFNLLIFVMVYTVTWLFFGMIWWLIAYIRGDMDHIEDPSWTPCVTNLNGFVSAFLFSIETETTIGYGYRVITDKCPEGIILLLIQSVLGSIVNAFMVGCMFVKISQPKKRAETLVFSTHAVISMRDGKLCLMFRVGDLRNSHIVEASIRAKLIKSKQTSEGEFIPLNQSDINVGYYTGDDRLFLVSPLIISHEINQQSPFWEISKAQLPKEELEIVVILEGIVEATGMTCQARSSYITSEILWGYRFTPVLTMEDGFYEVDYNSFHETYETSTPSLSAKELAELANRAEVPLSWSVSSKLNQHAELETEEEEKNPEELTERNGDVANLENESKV
Description: as §1, §2, §3, §4

## 1-butanol [1-BuOH]
[1]
  inhibition of IRK1 channel, percentage inhibition: −20±3%

## 1-propanol [1-PrOH]
[1]
  inhibition of IRK1 channel, percentage inhibition: −12±2%
[2]
  desensitization of induced GIRK2 current in cells co-transfected with M2R and myristylated-phosducin: no desensitization
[2]; n=32
  activation of wildtype GIRK2, percentage change from Ba++ sensitive basal current: 486±34%

## CC(O)CC(C)(C)O (racemic) [MPD, 2-methyl-2,4-pentanediol]
[1]; HEK-293T, 100 mM MPD, -100 mV, read-out: percent change of basal current, IRK
  inhibition at 100000 µM: 32.5 ± 3.9%
[1]
  inhibition of IRK1 channel, percentage inhibition: −25±3%
[2]; 100 mM MPD, -100 mV, n=5
  percent change of basal current, GIRK2 (positive = activation): 246±26.7%
[2]
  desensitization of induced GIRK2 current in cells co-transfected with M2R and myristylated-phosducin: no desensitization
[2]; n=32
  activation of wildtype GIRK2, percentage change from Ba++ sensitive basal current: 305±19%
[2]; dose response, GIRK2
  concentration inducing a noticeable activation of GIRK currents: 10 mM

## C[N+](C)(C)CCOC(N)=O [Carbachol]
[2]; 5 μM Carbachol, M2R co-transfected, n=32
  G-protein activation of wildtype GIRK2 by Carbachol, percentage change from basal current: 928±141%
[2]
  desensitization of induced GIRK2 current in cells co-transfected with M2R and myristylated-phosducin: rapid activation and desensitization

## CCO [EtOH, ethanol]
[1]
  inhibition of IRK1 channel, percentage inhibition: −5±1%
[2]
  desensitization of induced GIRK2 current in cells co-transfected with M2R and myristylated-phosducin: no desensitization
[2]; n=32
  activation of wildtype GIRK2, percentage change from Ba++ sensitive basal current: 119±5%
